Source: patent publication US20150352134A1, “COMPOSITION FOR TOPICAL SKIN APPLICATION CONTAINING GINSENOSIDE F2 DERIVED FROM HYDROPONIC GINSENG” (AMOREPACIFIC CORPORATION, priority 2012, published 2015)

Assays:
[1] = target: T1, elastase type III (Sus scrofa, UniProt P00772); test: Elastase inhibitory effect; type: biochemical; conditions: EGCG 250 μM; 25° C., 15 minutes, absorbance 415 nm
T1 construct: purchased Sigma-Aldrich E0127
Method: The elastase inhibitory function of the ginsenoside F2 is measured in comparison with that of EGCG. The elastase and the substrate used herein are purchased from Sigma-Aldrich, U.S.A. (Cat. No. E0127).
The elastase inhibitory function is measured according to the following method.
In a 96-well plate, ginsenoside F2 (200 μL) and 50 μL of a 20 μg/mL elastase type III solution are mixed with a […] tris-HCL buffer solution (pH 8.0). The positive control is EGCG 250 μM, and the negative control which is a non-treated group is distilled water. Then, 100 μL of 0.4514 mg/mL N-succinyl-ala-ala-ala-p-nitroanilide prepared with the buffer solution is added to the mixture and allowed to react at 25° C. for 15 minutes. After completion of the reaction, the absorbance at 415 nm was measured. The blank test is performed in the same manner as described above to achieve calibration verification.
The elastase inhibitory function is calculated according to the following mathematical formula 1, and the results are presented in Table 2.
Elastase inhibition rate (%)={1−(C−D)/(A−B)}×100 [Mathematical Formula 1]
A: Absorbance at 415 nm with enzyme and no test substance.
B: Absorbance at 415 nm with no test substance and no enzyme.
C: Absorbance at 415 nm with test substance and enzyme.
D: Absorbance at 415 nm with test substance and no enzyme.

[2] = test system: collagenase (MMP-1); test: Collagenase (MMP-1) expression in human fibroblasts (ELISA); type: cell-based; conditions: 10 μg/mL for 24 hours; not treated control = 100
Method: The ginsenoside F2 of the present invention is measured in regards to the inhibitory effect on the generation of collagenase in comparison with retinoic acid. […] The human fibroblasts are treated with ginsenoside F2 or retinoic acid at a concentration of 10 μg/mL for 24 hours. Then, the cell culture medium is collected. The production yield of collagenase in the collected cell culture medium is measured using a collagenase measurement instrument commercially available (Catalog #. RPN 2610, USA Amersham Pharma Inc.). Firstly, the collected cell culture medium is put in each well of a 96-well plate uniformly coated with the primary collagenase antibodies and then subjected to antigen-antibody reactions in a thermostat container for 3 hours. After 3 hours, the secondary collagenase antibodies coupled to the chromophore groups are put in each well of the 96-well plate and then allowed to react for more 15 minutes. […] The intensity of yellowness in the reaction mixture is varied depending on the progress of the reaction. The absorbance of the yellow-colored 96-well plate is measured at 405 nm with a spectrophotometer, and the expression level of collagenase is calculated according to the following mathematical formula 2. In this regard, the absorbance of the cell culture medium collected from the group not treated with the composition of the present invention is considered as the absorbance of the control. [formula]

[3] = test system: tyrosinase; test: Tyrosinase inhibitory effect; type: biochemical, mushrooms; conditions: 37° C., absorbance 475 nm
Method: The tyrosinase as used herein is an enzyme extracted from mushrooms and purchased from Sigma-Aldrich. Firstly, tyrosine as a substrate is dissolved in distilled water to prepare a 0.3 mg/mL solution, which is added dropwise to a test tube at an amount of 1.0 mL each time. To the solution are added 1.0 mL of a potassium phosphate buffer solution (0.1 mol, pH 6.8) and 0.7 mL of distilled water.
0.2 mL of the sample solution is added to the reactant solution and then allowed to have a reaction in a thermostat container at 37° C. for 10 minutes. In this regards, the control is the reactant solution containing 0.2 mL of a solvent alone in place of each sample solution. The positive control uses ascorbic acid. 0.1 mL of a 2500 unit/mL tyrosinase solution is added to the reactant solution, which is then allowed to have a reaction again in a thermostat container at 37° C. for 10 minutes. The test tube filled with the reactant solution is put into an ice water to cause quenching and thus stop the reaction. The absorbance at 475 nm is measured with a photoelectric spectrophotometer. The tyrosinase inhibitory effect is calculated according to the following mathematical formula 3.

[4] = test system: Human keratinocytes; test: Promotion of keratinocyte differentiation (cornified envelope, absorbance 340 nm); type: cell-based; conditions: ginsenoside 5 ppm, 5 days; low calcium negative control = 100
Method: The quantity of CE (Cornified Envelop) generated during differentiation of keratinocytes is measured in terms of absorbance in order to evaluate the ginsenoside F2 in regards to the effect of promoting differentiation of keratinocytes.
Human keratinocytes isolated from the epidermis of a newborn baby and subjected to a primary cultivation are immobilized in the bottom of a cultivation flask, treated with ginsenoside F2 applied to the culture medium to a concentration of 5 ppm, and cultured for 5 days until the keratinocytes grow to take up about 70 to 80% of the bottom area. In this regard, the negative control is the group treated with low calcium (0.03 mM), while the positive control is the group treated with high calcium (1.2 mM). Then, the cultured keratinocytes are harvested, washed with phosphate-buffered saline (PBS), treated with a 10 mM tris-HCl buffer solution (pH 7.4) containing 2% sodium dodecyl sulfate (SDS) and 20 mM dithiothreitol (DTT), and then subjected to sonication, boiling, and centrifugal isolation. The precipitation is suspended in 1 mL of PBS to measure the absorbance at 340 nm. Apart from this process, a part of the solution after sonication is collected and measured in regards to the protein content, which is determined as a reference in evaluating the degree of differentiation.

[5] = test system: DP6 (rat immortalized dermal papilla cell) line; test: Proliferation of hair follicle dermal papilla cells (WST-1); type: cell-based; conditions: 24 hours, not treated control = 100
Source text: The keratin protein constituting hair is produced by the keratinocytes in the hair roots, and the keratinocytes are differentiated from the hair papilla cells. To evaluate the composition of the present invention in regards to the effect to enhance the activity of hair papilla cells, the present invention uses DP6 (rat immortalized dermal papilla cell) line (Wendy Filsell, Journal of Cell Science 107, 1761-1772 (1994)). The hair papilla cells used in the present invention are a cell line isolated from the hair roots of male PVG rats by the microdissection method and cultured with DMEM (Dulbecco's modified eagle's medium, Gibco BRL, Gaithersburg, Md., U.S.A.) containing 10% FBS (Fetal Bovine Serum) in an incubator under the conditions of 5% CO2 and 37° C. for 24 hours. DP6 is put in the 96-well plate, cultured in an incubator at 37° C. for 24 hours and treated with the ginsenoside F2 of the present invention independently at a concentration of 5 ppm, 10 ppm, or 20 ppm. 24 hours after the treatment, the cell proliferation ability is measured using a WST-1 kit (Roche).

[6] = test system: MITF; test: MITF expression in melanocytes (Western Blot); type: cell-based; conditions: 501me1 cell line, IBMX 100 μM, ginsenoside 10 ppm
Method: (§1) 501me1 cell line is injected in each well of a 6-well microtiter plate at a rate of 500,000 cells/well. The cell line in each well is treated with 0.1% of DMSO as the negative control group, 100 μM of IBMX as the positive control group, or ginsenoside 10 ppm of F2 as the test group, and cultured at 37° C. for 24 hours, 48 hours, or 72 hours, to obtain proteins. The proteins thus obtained are subjected to Western Blot using MITF and tyrosinase antibodies. Protein extraction and Western Blot are performed using the standard methods known in the art.

[7] = test system: tyrosinase; test: Tyrosinase expression in melanocytes (Western Blot); type: cell-based; conditions: 501me1 cell line, IBMX 100 μM, ginsenoside 10 ppm
Method: as §1

T1 sequence (P00772 27-266): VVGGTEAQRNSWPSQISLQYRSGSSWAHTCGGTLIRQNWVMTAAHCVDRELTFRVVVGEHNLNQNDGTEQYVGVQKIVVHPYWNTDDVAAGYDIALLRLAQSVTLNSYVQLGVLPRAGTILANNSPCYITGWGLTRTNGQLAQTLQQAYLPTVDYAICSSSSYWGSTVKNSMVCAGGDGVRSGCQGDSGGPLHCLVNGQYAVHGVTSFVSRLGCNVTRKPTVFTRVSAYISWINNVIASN

SMILES	Inhibition rate (%) (elastase) [1]	Collagenase expression level(%) [2]	Tyrosinase inhibition rate (%) [3]	Differentiation in keratinocytes (%) [4]	Cell proliferation ability (%) ([5]; 5 ppm)	Cell proliferation ability (%) ([5]; 10 ppm)	Cell proliferation ability (%) ([5]; 20 ppm)	MITF (Western Blot, in comparison with 100 of the negative control group) ([6]; 24 hrs)	MITF (Western Blot, in comparison with 100 of the negative control group) ([6]; 48 hrs)	MITF (Western Blot, in comparison with 100 of the negative control group) ([6]; 72 hrs)	Tyrosinase (Western Blot, in comparison with 100 of the negative control group) ([7]; 24 hrs)	Tyrosinase (Western Blot, in comparison with 100 of the negative control group) ([7]; 48 hrs)	Tyrosinase (Western Blot, in comparison with 100 of the negative control group) ([7]; 72 hrs)
CC(C)=CCC[C@](C)(O[C@@H]1O[C@H](CO)[C@@H](O)[C@H](O)[C@H]1O)[C@H]1CC[C@]2(C)[C@@H]1[C@H](O)C[C@@H]1[C@@]3(C)CC[C@H](O[C@@H]4O[C@H](CO)[C@@H](O)[C@H](O)[C@H]4O)C(C)(C)[C@@H]3CC[C@]12C [Ginsenoside F2, ginsenoside F2]	78%	73%	69%	309%	116%	122%	138%	92	120	162	150	182	211
CC(C)=CCC[C@](C)(O[C@@H]1O[C@H](CO[C@@H]2O[C@H](CO)[C@@H](O)[C@H](O)[C@H]2O)[C@@H](O)[C@H](O)[C@H]1O)[C@H]1CC[C@]2(C)[C@@H]1[C@H](O)C[C@@H]1[C@@]3(C)CC[C@H](O[C@@H]4O[C@H](CO)[C@@H](O)[C@H](O)[C@H]4O[C@@H]4O[C@H](CO)[C@@H](O)[C@H](O)[C@H]4O)C(C)(C)[C@@H]3CC[C@]12C [Ginsenoside Rb1]	71%	74%	60%	265%	114%	118%	127%	93	116	144	149	165	189
